Data set [1] has as its system recurrent ischemic events / major bleeding events. The settings on record: cited from earlier work.
Data set [2] relates to venous thrombus in vena cava. Kind of data set: Venous thrombosis on a screw thread (antithrombotic activity). It is filed as in vivo, rat. The settings on record: for % inhibition / Weight of thrombus: thrombus after 5 h. The text has this: The antithrombotic activity has also been studied in the test of venous thrombosis on a screw thread described by Kumada T. et al. in Thromb. Res 18 p. 189 (1980). Female rats of the same type as those previously described, in groups of 10 animals, were anesthetized with diethyl ether and their vena cava was isolated after abdominal incision. […] The thrombi formed rapidly and five hours later, under pentobarbital anesthesia, the abdomen is reopened and ligatures are placed above and below the screw thread which is withdrawn after longitudinal incision of the vein and the isolated thrombus is weighed. […] The control is without drug.

The subject of data set [3] is ADP induced platelet aggregation (platelet-rich plasma). Kind of data set: Measurement of platelet aggregation with ADP, ex vivo after oral administration. It is filed as in vivo, rat. The settings on record: 2 h before sampling, ADP 2.5 μM. Here is the method:
The platelet aggregation inhibiting activities and the antithrombotic activities of the compounds were studied in the rat by standard methods. The activity on the aggregation of plates induced by ADP or collagen was determined ex-vivo. […] The aggregating solutions used were: a 500 μM aqueous solution of ADP (final concentration 2.5 μM). The aggregation of the platelets was monitored as described by Born (Nature 194, p. 927 […]), which is incorporated herein by reference, using a Coultronics® aggregometer at a temperature of 37° C. and agitation of 900 rpm. For aggregation with ADP, the aggregometer generates a curve representing a platelet aggregation as measured by a change in optical density. The height of this curve is defined as the height of aggregation. […] The controls are without drug.

The conditions of data set [4]: rat; cited from earlier work.
Data set [5] deals with ADP induced platelet aggregation. The settings on record: cited from earlier work; for Time until 50% inhibition of ADP induced platelet aggregation is reached: 5 μM ADP ex vivo, LTA.
For data set [6] the following is noted: cited from earlier work.
Data set [7] in a line: Activity of clopidogrel metabolite. The settings on record: metabolite in the clopidogrel pathway. The text has this: Thus, the influence that the patient's ability to metabolize has on efficacy is reduced.
Where [8] appears, read: patients at high risk of vascular events.
Where [9] appears, read: combined with Aspirin therapy, patients with ACS.

Like-named read-outs stand apart in the source and are kept apart here.

As to `CC(=O)Oc1ccccc1C(=O)O` [Aspirin], in data set [1] (setting [8]), the “Absolute risk increase (ARI), major bleeding events” value is “about 0.5%”; the “Absolute risk reduction (ARR), recurrent ischemic events” value was “about 2%”; the “Increase in the odds of major bleeding events” value is “about 60%”; the “Reduction of the risk of recurrent ischemic events” value was 22%.
For the compound `COC(=O)[C@H](c1ccccc1Cl)N1CCc2sccc2C1` [Clopidogrel bisulphate], the % inhibition – broadly, the share of the control response that was lost under treatment – in data set [2] (dose 10 mg/kg (base 7.69 mg/kg)) came to 67%; in data set [2] (dose 20 mg/kg (base 15.38 mg/kg)), 69%. Moreover, the Weight of thrombus came out at 1.26 ± 0.19 mg in data set [2] (dose 10 mg/kg (base 7.69 mg/kg), control 3.9 ± 0.3) and 1.20 ± 0.13 mg in data set [2] (dose 20 mg/kg (base 15.38 mg/kg), control 3.9 ± 0.3). In data set [3] (Rattus norvegicus, Platelet, oral dose 12.5 mg/kg (base 9.813 mg/kg)), the inhibition – broadly, the drop in the measured response relative to a control, in per cent – at 12.5 mg/kg came out at 82%. Also, the inhibition at 25 mg/kg in data set [3] (Rattus norvegicus, Platelet, oral dose 25 mg/kg (base 19.225 mg/kg)) was found to be 89%. For the same compound, the “% aggregation (height)” value in data set [3] (oral dose 12.5 mg/kg (base 9.813 mg/kg), control 103 ± 3) is 19 ± 4%; in data set [3] (oral dose 25 mg/kg (base 19.225 mg/kg), control 103 ± 3), 11 ± 1%.
As to `COC(=O)[C@H](c1ccccc1Cl)N1CCc2sccc2C1` [Clopidogrel, (+)-(S)-methyl 2-(2-chlorophenyl)-2-(6,7-dihydrothieno[3,2-c]pyridin-5(4H)-yl)acetate], in data set [4], the Lethal dose result is given as “about 5000 mg per kg”. The “Time until 50% inhibition of ADP induced platelet aggregation is reached” value in data set [5] (dose 600 mg) was 2 h. For the same compound, the “Inhibition of ADP induced platelet aggregation” value in data set [5] (dose 900 mg, 5 μM ADP) is given as 60%. In addition, the “Inhibition of platelet aggregation” value in data set [5] (dose 900 mg, 20 μM ADP ex vivo) is “less than 50%”. For the same compound, the “Time until 50% inhibition of ADP induced platelet aggregation is reached” value in data set [5] (loading dose 300 mg) is 4 to 6 h. Further, in data set [1] (setting [9]), the “Absolute risk reduction (ARR), recurrent ischemic events” value is reported as “about 2.1%” and the “Further reduction of the risk of recurrent ischemic events” value is listed as 20%. The “Fraction converted to clopidogrel acid in vivo” value in data set [6] is 90%.
On to `O=C(O)[C@H](c1ccccc1Cl)N1CCc2sccc2C1` [Formula IV], for which, in data set [7], the “Activity of the metabolite” value was “inactive”.
Consider `COC(=O)[C@H](c1ccccc1Cl)N1CCC2SC(=O)C=C2C1` (stereo partly drawn) [Thiolactone, Methyl(S)-2(2-chlorophenyl)-2-(2,4,5,6,7,7a-hexahydrothieno[3,2-c]-5-pyridin-2-one)acetate], for which the “Antithrombotic activity compared with clopidogrel” value in data set [2] (Table 2) is reported as “superior to clopidogrel”. Further, the “% inhibition” value in data set [2] (dose 12.5 mg/kg (base 12.5 mg/kg)) was found to be 76%. The Weight of thrombus in data set [2] (dose 12.5 mg/kg (base 12.5 mg/kg), control 4.18 ± 0.31) turned out to be 1.18 ± 0.18 mg. Moreover, testing at 2.5 mg/kg in data set [3] (Rattus norvegicus, Platelet, oral dose 2.5 mg/kg (base 2.5 mg/kg)) gave an inhibition of 95%. The “% aggregation (height)” value in data set [3] (oral dose 2.5 mg/kg (base 2.5 mg/kg), control 94 ± 1) came to 4 ± 2%.
